Source: patent publication US12144864B2, “Tubulysins and protein-tubulysin conjugates” (Regeneron Pharmaceuticals, Inc., priority 2018, dated 2024)
Like-named read-outs stand apart in the source and are kept apart here.

Legend:
[1] = system: H69AR cells; assay: Cytotoxicity in panel of MDR cell lines, H69AR (72 h and 144 h); type: cell-based, human; details: for IC50: Homo sapiens
Procedure, shortened: (§1)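 Viability was measured as ATP luminescence (CellTiter-Glo) after 72 h and 144 h payload exposure, using 1:3 dilution series. Each line had 1000 cells/well: H69AR in RPMI with 20% FBS, HCT-15 and HL60/MX2 in RPMI with 10% FBS, and MES-SA/MX2 in 1:1 Waymouth's:McCoy's with 10% FBS. Values are four-parameter logistic IC50 and % kill (100 − % viable) at the highest dose.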

[2] = system: HL60/MX2 cells; assay: Cytotoxicity in panel of MDR cell lines, HL60/MX2 (72 h and 144 h); type: cell-based, human; details: for IC50: Homo sapiens
Procedure, shortened: as §1

[3] = system: HCT-15 cells; assay: Cytotoxicity in panel of MDR cell lines, HCT-15 (72 h and 144 h); type: cell-based, human; details: for IC50: Homo sapiens
Procedure, shortened: as §1

[4] = system: C4-2 cells; assay: Cell-based killing assay of payloads (CellTiter-Glo), C4-2 cells; set-up: species or system human; details: 5-day incubation; for IC50: Homo sapiens, C4-2, 120 h, average ± SD where replicates; for C4-2 % Kill: at maximum concentration tested (100 − % viable cells)
Procedure, shortened: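 Cells plated at 4000/well in line-specific complete medium, grown overnight, then exposed to 1:3 serial dilutions of payload (100 nM to […]) for 5 days. ATP-based CellTiter-Glo luminescence read; IC50 from four-parameter logistic 10-point fit, and % kill at top concentration as 100 − % viable.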

[5] = system: HEK293 cells; assay: Cell-based killing assay of payloads (CellTiter-Glo), HEK293 cells; set-up: species or system human; details: 5-day incubation; for IC50: Homo sapiens, HEK293, 120 h; for HEK293 % Kill: at maximum concentration tested
Method: (§2) To test the ability of the disclosed tubulysin payloads to kill human cell lines, an in vitro cytotoxicity assay was performed. In vitro cytotoxicity of the disclosed payloads, as well as reference compounds, were evaluated using the CellTiter-Glo Assay Kit (Promega, Cat #G7573), in which the quantity of ATP present is used to determine the number of viable cells in culture. For the assay, C4-2, HEK293, or T47D cells were seeded at 4000 cells/well on Nunclon white 96-well plates in complete growth medium (DME high glucose:Ham's F12 at 4:1, 10% FBS, 100 units/ml Penicillin, 100 ug/ml streptomycin, 53 ug/ml glutatmine, 10 ug/ml insulin, 220 ng/ml biotin, 12.5 pg/ml T3, 12.5 ug/ml Adenine, 4 ug/ml transferrin for C42 cells; DME high glucose, 10% FBS, 100 units/ml Penicillin, 100 ug/ml streptomycin, 53 ug/ml glutatmine for HEK293; RPMI, 10% FBS, 100 units/ml Penicillin, 100 ug/ml streptomycin, 53 ug/ml glutatmine, 10 ug/ml insulin, 10 mM HEPEs, 200 nM Sodium Pyruvate for T47D cells) and grown overnight at 37° C. in 5% CO2. For cell viability curves, 1:3 serially diluted payloads were added to the cells at final concentrations ranging from 100 nM to […], including a no treatment control group, and were then incubated for 5 days. After the 5-day incubation, cells were incubated at room temperature with 100 μL of CellTiter-Glo reagents for 10 minutes. Relative luminescence units (RLU) were determined on a Victor plate reader (PerkinElmer). The IC50 values were determined from a four-parameter logistic equation over a 10-point response curve (GraphPad Prism). All IC50 values are expressed in molar (M) concentration. The percent cell killing (% kill) at the maximum concentration tested was estimated from the following formula (100−% viable cells). Averages±standard deviation (SD) are included where replicate experiments were performed.

[6] = system: HCT15 cells; assay: cells; type: cell-based, human; details: HCT15 cells; for HCT-15 + verapamil % Kill / HCT-15 % Kill: maximum % cell killing
Procedure, shortened: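 HCT15 colorectal carcinoma cells, 1000 per well in RPMI/10% FBS, with or without 5 ug/mL verapamil, exposed to 1:3 serially diluted payloads for 5 days at 37 °C. Viability measured by CellTiter-Glo ATP luminescence; IC50 from four-parameter logistic fit of a 10-point curve, % kill at top concentration.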

[7] = system: MES-SA/MX2 cells; assay: Cytotoxicity in panel of MDR cell lines, MES-SA/MX2 (72 h and 144 h); type: cell-based, human; details: for IC50: Homo sapiens
Procedure, shortened: as §1

[8] = system: T47D cells; assay: Cell-based killing assay of payloads (CellTiter-Glo), T47D cells; set-up: species or system human; details: 5-day incubation; for IC50: Homo sapiens, T47D, 120 h; for T47D % Kill: at maximum concentration tested
Method: as §2

[9] = 72 h incubation, read-out: H69AR IC50 72 h
[10] = 144 h incubation, read-out: H69AR IC50 144 h
[11] = 72 h incubation, read-out: HL60/MX2 IC50 72 h
[12] = 144 h incubation, read-out: HL60/MX2 IC50 144 h
[13] = 72 h incubation, read-out: HCT-15 IC50 72 h
[14] = 144 h incubation, read-out: HCT-15 IC50 144 h
[15] = with 5 ug/mL Verapamil, read-out: HCT-15 + verapamil IC50
[16] = Homo sapiens, HCT-15, without Verapamil, read-out: HCT-15 IC50
[17] = 72 h incubation, read-out: MES-SA/MX2 IC50 72 h
[18] = 144 h incubation, read-out: MES-SA/MX2 IC50 144 h

Structure (SMILES)	H69AR % Kill 72 h ([1]; 72 h incubation)	H69AR % Kill 144 h ([1]; 144 h incubation)	IC50 [1, 9]	IC50 [1, 10]	HL60/MX2 % Kill 72 h ([2]; 72 h incubation)	HL60/MX2 % Kill 144 h ([2]; 144 h incubation)	IC50 [2, 11]	IC50 [2, 12]	HCT-15 % Kill 72 h ([3]; 72 h incubation)	HCT-15 % Kill 144 h ([3]; 144 h incubation)	IC50 [4]	C4-2 % Kill [4]	IC50 [5]	HEK293 % Kill [5]	HCT-15 + verapamil % Kill ([6]; with 5 ug/mL Verapamil)	IC50 [6, 15]	HCT-15 % Kill ([6]; without Verapamil)	IC50 [6, 16]	IC50 [8]	T47D % Kill [8]	also measured
C#CCCCCN(C(=O)[C@@H](NC(=O)[C@H]1CCCCN1C)[C@@H](C)CC)[C@H](C[C@@H](OC(C)=O)c1nc(C(=O)N[C@@H](Cc2ccc(F)cc2)CC(C)(C)C(=O)O)cs1)C(C)C [IVc, (4S)-4-({2-[(1R,3R)-1-(Acetyloxy)-3-[(2S,3S)—N-(hex-5-yn-1-yl)-3-methyl-2-{[(2R)-1-methylpiperidin-2-yl]formamido}pentanamido]-4-methylpentyl]-1,3-thiazol-4-yl}formamido)-5-(4-fluorophenyl)-2,2-dimethylpentanoic acid]	96.6%	99.3%	360 pM	725 pM	97.7%	99.9%	< 15 pM	< 15 pM	97.3%	99.8%	92.4 pM	92.2%	307 pM	84.8%	98%	113 pM	99.2%	302 pM	205 pM	81.4%	IC50 [3, 13]: 125 pM; IC50 [3, 14]: 165 pM; MES-SA/MX2 % Kill 72 h ([7]; 72 h incubation): 98.2%; MES-SA/MX2 % Kill 144 h ([7]; 144 h incubation): 99.9%; IC50 [7, 17]: 374 pM; IC50 [7, 18]: 604 pM
C#CCCCCN(C(=O)[C@@H](NC(=O)[C@H]1CCCCN1C)[C@@H](C)CC)[C@H](C[C@@H](OC(C)=O)c1nc(C(=O)N[C@@H](Cc2ccc(F)cc2)C[C@H](C)C(=O)O)cs1)C(C)C [IVe, (2S,4R)-4-({2-[(1R,3R)-1-(Acetyloxy)-3-[(2S,3S)—N-(hex-5-yn-1-yl)-3-methyl-2-{[(2R)-1-methylpiperidin-2-yl]formamido}pentanamido]-4-methylpentyl]-1,3-thiazol-4-yl}formamido)-5-(4-fluorophenyl)-2-methylpentanoic acid]	96.5%	99%	585 pM	1260 pM	97.3%	99.9%	< 15 pM	< 15 pM	98.1%	99.6%	74.2 pM	91.8%	281 pM	86.7%	97.6%	100 pM	95.8%	295 pM	155 pM	67.2%	IC50 [3, 13]: 133 pM; IC50 [3, 14]: 230 pM; MES-SA/MX2 % Kill 72 h ([7]; 72 h incubation): 99.6%; MES-SA/MX2 % Kill 144 h ([7]; 144 h incubation): 99.9%; IC50 [7, 17]: 786 pM; IC50 [7, 18]: 2810 pM
C#CCCCON(C(=O)[C@@H](NC(=O)[C@H]1CCCCN1C)[C@@H](C)CC)[C@H](C[C@@H](OC(=O)NCC)c1nc(C(=O)N[C@@H](Cc2ccc(N)cc2)CC(C)(C)C(=O)O)cs1)C(C)C [VIf, (4S)-5-(4-Aminophenyl)-4-({2-[(1R,3R)-1-[(ethylcarbamoyl)oxy]-4-methyl-3-[(2S,3S)-3-methyl-2-{[(2R)-1-methylpiperidin-2-yl]formamido}-N-(pent-4-yn-1-yloxy)pentanamido]pentyl]-1,3-thiazol-4-yl}formamido)-2,2-dimethylpentanoic acid]	–	–	–	–	–	–	–	–	–	–	312 pM	93.9%	383 pM	85.6%	98.8%	85.4 pM	99.1%	2060 pM	302 pM	63.2%	–
C#CCCCON(C(=O)[C@@H](NC(=O)[C@H]1CCCCN1C)[C@@H](C)CC)[C@H](C[C@@H](OC(C)=O)c1nc(C(=O)N[C@@H](Cc2ccc(F)cc2)CC(C)(C)C(=O)O)cs1)C(C)C [Vd, (4S)-4-({2-[(1R,3R)-1-(Acetyloxy)-4-methyl-3-[(2S,3S)-3-methyl-2-{[(2R)-1-methylpiperidin-2-yl]formamido}-N-(pent-4-yn-1-yloxy)pentanamido]pentyl]-1,3-thiazol-4-yl}formamido)-5-(4-fluorophenyl)-2,2-dimethylpentanoic acid]	–	–	–	–	–	–	–	–	–	–	384 pM	91.3%	590 pM	86.3%	98.7%	352 pM	99.7%	1930 pM	444 pM	66%	–
C#CCCCON(C(=O)[C@@H](NC(=O)[C@H]1CCCCN1C)[C@@H](C)CC)[C@H](C[C@@H](OC(C)=O)c1nc(C(=O)N[C@@H](Cc2ccc(F)cc2)C[C@H](C)C(=O)O)cs1)C(C)C [Vf, (2S,4R)-4-({2-[(1R,3R)-1-(Acetyloxy)-4-methyl-3-[(2S,3S)-3-methyl-2-{[(2R)-1-methylpiperidin-2-yl]formamido}-N-(pent-4-yn-1-yloxy)pentanamido]pentyl]-1,3-thiazol-4-yl}formamido)-5-(4-fluorophenyl)-2-methylpentanoic acid]	–	–	–	–	–	–	–	–	–	–	900 pM	90%	666 pM	83.8%	98%	375 pM	96.5%	3360 pM	396 pM	68%	–
CC[C@H](C)[C@H](NC(=O)[C@H]1CCCCN1C)C(=O)N(OCCCOCc1ccc(N)cc1)[C@H](C[C@@H](OC(C)=O)c1nc(C(=O)N[C@@H](Cc2ccc(O)cc2)C[C@H](C)C(=O)O)cs1)C(C)C [Vj, (2S,4R)-4-(2-((8R,10R)-1-(4-Aminophenyl)-8-isopropyl-7-((2S,3S)-3-methyl-2-((R)-1-methylpiperidine-2-carboxamido)pentanoyl)-12-oxo-2,6,11-trioxa-7-azatridecan-10-yl)thiazole-4-carboxamido)-5-(4-hydroxyphenyl)-2-methylpentanoic acid]	–	–	–	–	–	–	–	–	–	–	53100 pM	68.5 ± 39.2%	> 100000 pM	4.7%	77.4%	39200 pM	−3.8%	> 100000 pM	> 100000 pM	14.6%	–
